Ki data for 27 compounds are collected here from patent US20050209278A1, “Piperidinyl- and piperazinyl-sulfonylmethyl hydroxamic acids and their use as protease inhibitors” (priority 2002, published 2005).

The target in assay [1] is T1, MMP-9 (Homo sapiens, UniProt P14780).
T1 construct: made in house; host or cells: MMP-9-transfected HT1080 cells (spent media)
Description: In vitro MMP inhibition, Ki determination (fluorogenic substrate II). It is filed as biochemical. In short, it runs like this:
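HT1080-derived MMP-9, activated with APMA, trypsin or MMP-3, incubated 1 hr at room temperature with inhibitor and 4 μM fluorogenic substrate II (at or below Km) in pH 7.5 Tris/NaCl/CaCl2 buffer; ex 330/em 420 nm. Ki from Morrison-equation regression, without substrate correction.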

Assay [2] has as its target T2, MMP-13 (Homo sapiens, UniProt P45452).
T2 construct: made in house; host or cells: baculovirus / insect cells
The description is as above. Type of assay: biochemical. To be noted: read-out: MMP-13 Ki. In outline:
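Ki determined with human recombinant MMP-13, baculovirus-expressed as proenzyme and activated with APMA. Fluorogenic MCA/Dpa substrate II at 4 μM (at or below Km) with low enzyme in Tris buffer pH 7.5 with CaCl2. Incubation was 1 h at room temperature, with fluorescence read at 330/420 nm.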

pKi: −log10 of the molar value. Read-outs that look alike come from different tables or passages of the source.

T1 sequence (P14780 107-707 limits assumed): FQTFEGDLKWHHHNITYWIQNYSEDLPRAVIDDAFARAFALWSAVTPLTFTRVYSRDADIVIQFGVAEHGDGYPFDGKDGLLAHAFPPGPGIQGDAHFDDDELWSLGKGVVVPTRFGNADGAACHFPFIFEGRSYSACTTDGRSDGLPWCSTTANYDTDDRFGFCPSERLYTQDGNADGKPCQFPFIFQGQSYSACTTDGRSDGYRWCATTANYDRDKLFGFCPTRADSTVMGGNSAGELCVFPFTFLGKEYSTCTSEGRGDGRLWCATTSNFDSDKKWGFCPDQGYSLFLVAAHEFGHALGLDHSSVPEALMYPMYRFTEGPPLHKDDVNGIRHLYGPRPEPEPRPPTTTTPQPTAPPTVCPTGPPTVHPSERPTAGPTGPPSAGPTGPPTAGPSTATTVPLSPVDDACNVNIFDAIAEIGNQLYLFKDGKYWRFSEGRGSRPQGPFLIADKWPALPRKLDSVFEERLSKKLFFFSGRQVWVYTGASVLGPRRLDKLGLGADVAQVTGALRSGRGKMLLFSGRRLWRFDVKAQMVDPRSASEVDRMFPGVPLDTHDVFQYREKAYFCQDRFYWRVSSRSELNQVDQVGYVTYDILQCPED

As a reminder, the pKi is the negative decadic logarithm of the Ki, by convention in mol/L. For the compound `O=C(NO)C1(S(=O)(=O)N2CCN(c3ncc(-c4ccc(Cl)cc4)cn3)CC2)CCOCC1` [Example 66], the pKi in assay [1] (value not in parenthesis) was 9.28; in assay [2] (value not in parenthesis), 9.60.
The like results for `CCCCc1cnc(N2CCN(S(=O)(=O)C3(C(=O)NO)CCOCC3)CC2)nc1` [Example 105] were, in that order, 9.13 and 8.73.
As to `CCCCc1ccc(N2CCN(S(=O)(=O)C3(C(=O)NO)CCOCC3)CC2)nc1` [Example 168], the pKi was 9.80 in assay [1] (value not in parenthesis) and 9.68 in assay [2] (value not in parenthesis).
For `CCc1ccc(-c2ccc(C3CCN(S(=O)(=O)C4(C(=O)NO)CCOCC4)CC3)nc2)cc1` [Example 393], the results for the negative-log Ki (pKi) in assay [1] (value outside parentheses) and in assay [2] (value outside parentheses) were 8.31 and 8.96, respectively.
In the same order, the values of `CCCCc1ccc(C2CCN(S(=O)(=O)C3(C(=O)NO)CCN(CCOC)CC3)CC2)nc1` [Example 397] are 10.05 and 9.27.
Regarding `O=C(NO)C1(S(=O)(=O)N2CCC(c3ccc(OCc4ccccc4)cn3)CC2)CCOCC1` [Example 398], the pKi in assay [1] (value outside parentheses) is 8.25; in assay [2] (value outside parentheses), 9.82.
With `N#Cc1ccc(-c2cnc(N3CCN(S(=O)(=O)C4(C(=O)NO)CCOCC4)CC3)s2)cc1` [Example 399], the pKi was 9.24 in assay [1] (value outside parentheses) and 10.40 in assay [2] (value outside parentheses).
In the same order, the values of `CCCC#Cc1cnc(N2CCN(S(=O)(=O)C3(C(=O)NO)CCOCC3)CC2)s1` [Example 400] are 8.85 and 9.55.
Regarding `CCCCCC/C=C\C1CCN(S(=O)(=O)C2(C(=O)NO)CCOCC2)CC1` [Example 401], the negative logarithm of the Ki (pKi) in assay [1] (value outside parentheses) was 8.37; in assay [2] (value outside parentheses), 8.04.
In the same order, the values of `CCCCCC/C=C/C1CCN(S(=O)(=O)C2(C(=O)NO)CCOCC2)CC1` [Example 402] are 9.72 and 9.24.
In the same order, the values of `O=C(NO)C1(S(=O)(=O)N2CCC(COCc3ccc(C(F)(F)F)cc3)CC2)CCOCC1` [Example 403] are 8.13 and 8.61.
Consider `O=C(NO)C1(S(=O)(=O)N2CCC(COCc3ccc(OC(F)(F)F)cc3)CC2)CCOCC1` [Example 404], for which the pKi in assay [1] (value outside parentheses) was 8.64; in assay [2] (value outside parentheses) it was 9.48.
The like results for `O=C(NO)C1(S(=O)(=O)N2CCC(COCc3ccc(SC(F)(F)F)cc3)CC2)CCOCC1` [Example 405] were, in that order, 8.47 and 9.74.
The like results for `CCCCCCCOC1CCN(S(=O)(=O)C2(C(=O)NO)CCOCC2)CC1` [Example 406] were, in that order, 9.12 and 8.89.
The like results for `O=C(NO)C1(S(=O)(=O)N2CCC(c3ccc(-c4cccs4)c(F)c3)CC2)CCOCC1` [Example 407] were, in that order, 8.72 and 9.11.
For the compound `O=C(NO)C1(S(=O)(=O)N2CCC(c3ccc(N4CCCC4)cn3)CC2)CCOCC1` [Example 408], the negative logarithm of the Ki (pKi) in assay [1] (value outside parentheses) was 7.99; in assay [2] (value outside parentheses), 7.96.
For `O=C(NO)C1(S(=O)(=O)N2CCC(c3ccc(-c4ccccn4)cn3)CC2)CCOCC1` [Example 409], the values for the negative-log Ki (pKi) in assay [1] (value outside parentheses) and in assay [2] (value outside parentheses) were 7.87 and 7.65, respectively.
Consider `CCCCOc1ccc(C2CCN(S(=O)(=O)C3(C(=O)NO)CCOCC3)CC2)nc1` [Example 410], for which the negative logarithm of the Ki (pKi) is 9.26 in assay [1] (value outside parentheses) and 9.70 in assay [2] (value outside parentheses).
The like results for `CCC(F)(F)CCc1ccc(C2CCN(S(=O)(=O)C3(C(=O)NO)CCOCC3)CC2)cn1` [Example 411] were, in that order, 8.69 and 8.11.
With `Cc1ccc(-c2csc(N3CCN(S(=O)(=O)C4(C(=O)NO)CCOCC4)CC3)n2)cc1` [Example 412], the pKi in assay [1] (value outside parentheses) and in assay [2] (value outside parentheses) was below 5.00 each time.
As to `Cc1cccc(-c2csc(N3CCN(S(=O)(=O)C4(C(=O)NO)CCOCC4)CC3)n2)c1` [Example 413], the negative logarithm of the Ki (pKi) in assay [1] (value outside parentheses) was below 5.00; in assay [2] (value outside parentheses), 5.32.
Regarding `O=C(NO)C1(S(=O)(=O)N2CCN(c3nc(-c4ccccc4)cs3)CC2)CCOCC1` [Example 415], the values for the negative logarithm of the Ki (pKi) in assay [1] (value outside parentheses) and in assay [2] (value outside parentheses) were below 5.00 and 5.62, respectively.
The like results for `Cc1ccc(-c2ccc(C3CCN(S(=O)(=O)C4(C(=O)NO)CCOCC4)CC3)nc2)s1` [Example 416] were, in that order, 8.83 and 8.87.
Regarding `O=C(NO)C1(S(=O)(=O)N2CCC(c3ccc(-c4cccc(F)c4)cn3)CC2)CCOCC1` [Example 417], the negative-log Ki (pKi) in assay [1] (value outside parentheses) was 8.39; in assay [2] (value outside parentheses) it was 8.42.
In the same order, the values of `O=C(NO)C1(S(=O)(=O)N2CCC(c3ccc(OCCC(F)(F)F)cn3)CC2)CCOCC1` [Example 418] are 8.73 and 9.34.
The like results for `O=C(NO)C1(S(=O)(=O)N2CCN(c3ccc(-c4nn[nH]n4)cc3)CC2)CCOCC1` [Example 419] were, in that order, 6.95 and 7.47.
For `CCCCc1ccc(C2(O)CCN(S(=O)(=O)C3(C(=O)NO)CCOCC3)CC2)nc1` [Example 420], the results for the pKi in assay [1] (value outside parentheses) and in assay [2] (value outside parentheses) were 7.10 and 6.76, respectively.
